In ChEMBL document CHEMBL3877275, “Dihydroorotate dehydrogenase: A drug target for the development of antimalarials” (Eur J Med Chem, 2017) one finds IC50 and Ratio IC50 data, which are given here for 12 molecules.

Molecules are shown by their SMILES. pIC50: −log10 of the molar value.

Assay [1] can be described thus: Inhibition of Plasmodium falciparum DHODH using L-dihydroorotate as substrate after 20 mins by DCIP-based assay.
Assay [2] is described as follows: Inhibition of Plasmodium falciparum DHODH expressed in Escherichia coli using L-dihydroorotate as substrate by DCIP-based spectrophotometric method.
Assay [3] in a line: Selectivity ratio of IC50 for human DHODH to IC50 for Plasmodium falciparum DHODH.
The nature of assay [4]: Inhibition of Plasmodium falciparum DHODH.
Another assay concerns Plasmodium falciparum. In words: Antiparasitic activity against Plasmodium falciparum NF54 infected in human erythrocytes by [3H]-hypoxanthine incorporation assay. The assay is classed as functional, cell-based.

The term pIC50 denotes −log10 of the IC50, conventionally taken in molar units. A lower pIC50 goes with a large IC50. Molecule `COc1ccc2c(c1)ncn2-c1ccc(C(=O)NC2CC2)s1` had a pIC50 in assay [1] of 7.66.
Consider `Cc1cc(Nc2cc(F)c(C(F)(F)F)c(F)c2)n2nc(C(F)(F)F)nc2n1`, for which, in assay [2], the pIC50 was 7.66.
Consider `COc1ccccc1NC(=O)Nc1cccc2ccccc12`, for which the Ratio IC50 in assay [3] is 70 to 12500. For the same molecule, the pIC50 in assay [4] is 6.10 to 7.70; in the assay on Plasmodium falciparum, 4.92 to 5.30.
In assay [1], `COc1cccc2c1ncn2-c1ccc(C(=O)NC2CC2)s1` gave a negative logarithm of the IC50 (pIC50) of 7.36.
For `N#Cc1cccc2c1ncn2-c1ccc(C(=O)NC2CC2)s1`, the negative logarithm of the IC50 (pIC50) in assay [1] is 7.30.
For the molecule `O=C(Nc1ccc(Cl)cc1Cl)c1ccc2ccccc2c1`, the Ratio IC50 in assay [3] was in the range of 70 to 12500. The values for the negative-log IC50 (pIC50) (in assay [4]; with Plasmodium falciparum) were 6.10 to 7.70 and 4.92 to 5.30, respectively.
As for `CCOC(=O)C(=CNc1cccc(N(C)C)c1)C(=O)OCC`, the negative logarithm of the IC50 (pIC50) in the assay on Plasmodium falciparum was 4.92 to 5.30.
Consider `Cc1cc(Nc2cc(F)c(C(F)(F)F)c(F)c2)n2nc(C(C)(F)F)nc2n1`, for which the negative-log IC50 (pIC50) in assay [2] was 7.92.
Still for that read-out and setting: the figure for `Cc1cc(Nc2ccc(C(F)(F)F)c(F)c2)n2nc(C(F)(F)F)nc2n1` is 7.46.
In the case of `Cc1c(C(=O)Nc2cc(Cl)cc(Cl)c2)cccc1[N+](=O)[O-]`, the Ratio IC50 in assay [3] is 70 to 12500. Further, the results for the pIC50 (in assay [4]; with Plasmodium falciparum) were 6.10 to 7.70 and 4.92 to 5.30, respectively.
In assay [2], `Cc1cc(Nc2ccc(C(F)(F)F)cc2)n2ccnc2n1` showed a pIC50 of 6.11.
Regarding `Cc1cc(Nc2ccc(C(F)(F)F)cc2)n2nc(C(F)(F)F)nc2n1`, in assay [2], the pIC50 is 7.46.
